Data taken from ChEMBL document CHEMBL1275557, “First countrywide survey of acquired metallo-beta-lactamases in gram-negative pathogens in Italy” (2008).
Values after ≈ are worked out from the molar mass of the structure shown.

Assays:
Type in all cases: functional
Pseudomonas aeruginosa [1] = experiment: Antibacterial activity against IMP-13 producing Pseudomonas aeruginosa clone C1 isolate AV-13X-28 by Etest method in presence of Tazobactam
Pseudomonas aeruginosa [2] = experiment: Antibacterial activity against IMP-13 producing Pseudomonas aeruginosa clone C2 isolate NA-14X-02 by Etest method in presence of Tazobactam
Pseudomonas aeruginosa [3] = experiment: Antibacterial activity against IMP-13 producing Pseudomonas aeruginosa clone C2 isolate NA-14X-10 by Etest method in presence of Tazobactam
Enterobacter cloacae [4] = experiment: Antibacterial activity against VIM-1 producing Enterobacter cloacae isolate TO-16X-51 by Etest method
Pseudomonas putida [5] = experiment: Antibacterial activity against VIM-1 producing Pseudomonas putida isolate RM-11X-11 by Etest method
Pseudomonas aeruginosa [6] = experiment: Antibacterial activity against VIM-1 producing Pseudomonas aeruginosa clone A1 isolate FG-17X-14 by Etest method
Pseudomonas aeruginosa [7] = experiment: Antibacterial activity against VIM-1 producing Pseudomonas aeruginosa clone A2 isolate NA-14X-21 by Etest method
Pseudomonas aeruginosa [8] = experiment: Antibacterial activity against VIM-1 producing Pseudomonas aeruginosa clone A2 isolate NA-14X-26 by Etest method
Pseudomonas aeruginosa [9] = experiment: Antibacterial activity against VIM-1 producing Pseudomonas aeruginosa clone A2 isolate NA-14X-32 by Etest method
Pseudomonas aeruginosa [10] = experiment: Antibacterial activity against VIM-1 producing Pseudomonas aeruginosa clone A3 isolate NA-14X-34 by Etest method
Pseudomonas aeruginosa [11] = experiment: Antibacterial activity against VIM-1 producing Pseudomonas aeruginosa clone A3 isolate FG-17X-08 by Etest method
Pseudomonas aeruginosa [12] = experiment: Antibacterial activity against VIM-1 producing Pseudomonas aeruginosa clone D isolate VA-06X-69 by Etest method
Pseudomonas aeruginosa [13] = experiment: Antibacterial activity against VIM-1 producing Pseudomonas aeruginosa clone D1 isolate VA-06X-63 by Etest method
Pseudomonas aeruginosa [14] = experiment: Antibacterial activity against VIM-1 producing Pseudomonas aeruginosa clone D2 isolate VA-06X-16 by Etest method
Pseudomonas aeruginosa [15] = experiment: Antibacterial activity against VIM-1 producing Pseudomonas aeruginosa clone D2 isolate VA-06X-17 by Etest method
Pseudomonas aeruginosa [16] = experiment: Antibacterial activity against VIM-1 producing Pseudomonas aeruginosa clone D3 isolate VA-06X-65 by Etest method
Pseudomonas aeruginosa [17] = experiment: Antibacterial activity against VIM-1 producing Pseudomonas aeruginosa clone D4 isolate VA-06X-47 by Etest method
Pseudomonas aeruginosa [18] = experiment: Antibacterial activity against VIM-1 producing Pseudomonas aeruginosa clone E isolate VA-06X-29 by Etest method
Pseudomonas aeruginosa [19] = experiment: Antibacterial activity against VIM-1 producing Pseudomonas aeruginosa clone F isolate RM-11X-09 by Etest method
Pseudomonas aeruginosa [20] = experiment: Antibacterial activity against VIM-1 producing Pseudomonas aeruginosa clone G isolate NA-14X-13 by Etest method
Pseudomonas aeruginosa [21] = experiment: Antibacterial activity against VIM-2 producing Pseudomonas aeruginosa clone B1 isolate SS-09X-45 by Etest method
Pseudomonas aeruginosa [22] = experiment: Antibacterial activity against VIM-2 producing Pseudomonas aeruginosa clone B2 isolate VA-06X-20 by Etest method
Pseudomonas aeruginosa [23] = experiment: Antibacterial activity against VIM-2 producing Pseudomonas aeruginosa clone B2 isolate VA-06X-28 by Etest method
Pseudomonas aeruginosa [24] = experiment: Antibacterial activity against VIM-2 producing Pseudomonas aeruginosa clone B2 isolate VA-06X-38 by Etest method
Pseudomonas aeruginosa [25] = experiment: Antibacterial activity against VIM-2 producing Pseudomonas aeruginosa clone B3 isolate CR-04X-14 by Etest method
Pseudomonas aeruginosa [26] = experiment: Antibacterial activity against VIM-2 producing Pseudomonas aeruginosa clone B3 isolate PV-05X-02 by Etest method
Pseudomonas aeruginosa [27] = experiment: Antibacterial activity against VIM-2 producing Pseudomonas aeruginosa clone B3 isolate PV-05X-07 by Etest method
Pseudomonas aeruginosa [28] = experiment: Antibacterial activity against IMP-13 producing Pseudomonas aeruginosa clone C1 isolate AV-13X-28 by Etest method
Pseudomonas aeruginosa [29] = experiment: Antibacterial activity against IMP-13 producing Pseudomonas aeruginosa clone C2 isolate NA-14X-02 by Etest method
Pseudomonas aeruginosa [30] = experiment: Antibacterial activity against IMP-13 producing Pseudomonas aeruginosa clone C2 isolate NA-14X-10 by Etest method
Pseudomonas aeruginosa [31] = experiment: Antibacterial activity against IMP-13 producing Pseudomonas aeruginosa clone C2 isolate NA-14X-11 by Etest method
Pseudomonas aeruginosa [32] = experiment: Antibacterial activity against IMP-13 producing Pseudomonas aeruginosa clone C2 isolate NA-14X-12 by Etest method
Pseudomonas aeruginosa [33] = experiment: Antibacterial activity against IMP-13 producing Pseudomonas aeruginosa clone C3 isolate PG-12X-03 by Etest method
Enterobacter cloacae [34] = experiment: Antibacterial activity against VIM-1 producing Enterobacter cloacae isolate TO-16X-51 by Etest method in presence of Tazobactam
Pseudomonas putida [35] = experiment: Antibacterial activity against VIM-1 producing Pseudomonas putida isolate RM-11X-11 by Etest method in presence of Tazobactam
Pseudomonas aeruginosa [36] = experiment: Antibacterial activity against VIM-1 producing Pseudomonas aeruginosa clone A1 isolate FG-17X-14 by Etest method in presence of Tazobactam
Pseudomonas aeruginosa [37] = experiment: Antibacterial activity against VIM-1 producing Pseudomonas aeruginosa clone A2 isolate NA-14X-21 by Etest method in presence of Tazobactam
Pseudomonas aeruginosa [38] = experiment: Antibacterial activity against VIM-1 producing Pseudomonas aeruginosa clone A2 isolate NA-14X-26 by Etest method in presence of Tazobactam
Pseudomonas aeruginosa [39] = experiment: Antibacterial activity against VIM-1 producing Pseudomonas aeruginosa clone A2 isolate NA-14X-32 by Etest method in presence of Tazobactam
Pseudomonas aeruginosa [40] = experiment: Antibacterial activity against VIM-1 producing Pseudomonas aeruginosa clone A3 isolate NA-14X-34 by Etest method in presence of Tazobactam
Pseudomonas aeruginosa [41] = experiment: Antibacterial activity against VIM-1 producing Pseudomonas aeruginosa clone A3 isolate FG-17X-08 by Etest method in presence of Tazobactam
Pseudomonas aeruginosa [42] = experiment: Antibacterial activity against VIM-1 producing Pseudomonas aeruginosa clone D isolate VA-06X-69 by Etest method in presence of Tazobactam
Pseudomonas aeruginosa [43] = experiment: Antibacterial activity against VIM-1 producing Pseudomonas aeruginosa clone D1 isolate VA-06X-63 by Etest method in presence of Tazobactam
Pseudomonas aeruginosa [44] = experiment: Antibacterial activity against VIM-1 producing Pseudomonas aeruginosa clone D2 isolate VA-06X-16 by Etest method in presence of Tazobactam
Pseudomonas aeruginosa [45] = experiment: Antibacterial activity against VIM-1 producing Pseudomonas aeruginosa clone D2 isolate VA-06X-17 by Etest method in presence of Tazobactam
Pseudomonas aeruginosa [46] = experiment: Antibacterial activity against VIM-1 producing Pseudomonas aeruginosa clone D3 isolate VA-06X-65 by Etest method in presence of Tazobactam
Pseudomonas aeruginosa [47] = experiment: Antibacterial activity against VIM-1 producing Pseudomonas aeruginosa clone D4 isolate VA-06X-47 by Etest method in presence of Tazobactam
Pseudomonas aeruginosa [48] = experiment: Antibacterial activity against VIM-1 producing Pseudomonas aeruginosa clone E isolate VA-06X-29 by Etest method in presence of Tazobactam
Pseudomonas aeruginosa [49] = experiment: Antibacterial activity against VIM-1 producing Pseudomonas aeruginosa clone F isolate RM-11X-09 by Etest method in presence of Tazobactam
Pseudomonas aeruginosa [50] = experiment: Antibacterial activity against VIM-1 producing Pseudomonas aeruginosa clone G isolate NA-14X-13 by Etest method in presence of Tazobactam
Pseudomonas aeruginosa [51] = experiment: Antibacterial activity against VIM-2 producing Pseudomonas aeruginosa clone B1 isolate SS-09X-45 by Etest method in presence of Tazobactam
Pseudomonas aeruginosa [52] = experiment: Antibacterial activity against VIM-2 producing Pseudomonas aeruginosa clone B2 isolate VA-06X-20 by Etest method in presence of Tazobactam
Pseudomonas aeruginosa [53] = experiment: Antibacterial activity against VIM-2 producing Pseudomonas aeruginosa clone B2 isolate VA-06X-28 by Etest method in presence of Tazobactam
Pseudomonas aeruginosa [54] = experiment: Antibacterial activity against VIM-2 producing Pseudomonas aeruginosa clone B2 isolate VA-06X-38 by Etest method in presence of Tazobactam
Pseudomonas aeruginosa [55] = experiment: Antibacterial activity against VIM-2 producing Pseudomonas aeruginosa clone B3 isolate CR-04X-14 by Etest method in presence of Tazobactam
Pseudomonas aeruginosa [56] = experiment: Antibacterial activity against VIM-2 producing Pseudomonas aeruginosa clone B3 isolate PV-05X-02 by Etest method in presence of Tazobactam
Pseudomonas aeruginosa [57] = experiment: Antibacterial activity against VIM-2 producing Pseudomonas aeruginosa clone B3 isolate PV-05X-07 by Etest method in presence of Tazobactam
Pseudomonas aeruginosa [58] = experiment: Antibacterial activity against IMP-13 producing Pseudomonas aeruginosa clone C2 isolate NA-14X-11 by Etest method in presence of Tazobactam
Pseudomonas aeruginosa [59] = experiment: Antibacterial activity against IMP-13 producing Pseudomonas aeruginosa clone C2 isolate NA-14X-12 by Etest method in presence of Tazobactam
Pseudomonas aeruginosa [60] = experiment: Antibacterial activity against IMP-13 producing Pseudomonas aeruginosa clone C3 isolate PG-12X-03 by Etest method in presence of Tazobactam
Pseudomonas aeruginosa [61] = experiment: Antibacterial activity against metallo-beta-lactamase positive Pseudomonas aeruginosa assessed as percent susceptible isolates by Etest method in presence of Tazobactam

## CCN1CCN(C(=O)N[C@@H](C(=O)N[C@@H]2C(=O)N3[C@@H]2SC(C)(C)[C@@H]3C(=O)O)c2ccccc2)C(=O)C1=O [PIPERACILLIN]
Pseudomonas aeruginosa [1]
  MIC: 16 µg/mL
Pseudomonas aeruginosa [2]
  MIC: 16 µg/mL
Pseudomonas aeruginosa [3]
  MIC: 16 µg/mL
Enterobacter cloacae [4]
  MIC: > 128 µg/mL
Pseudomonas putida [5]
  MIC: > 128 µg/mL
Pseudomonas aeruginosa [6]
  MIC: > 128 µg/mL
Pseudomonas aeruginosa [7]
  MIC: > 128 µg/mL
Pseudomonas aeruginosa [8]
  MIC: > 128 µg/mL
Pseudomonas aeruginosa [9]
  MIC: > 128 µg/mL
Pseudomonas aeruginosa [10]
  MIC: > 128 µg/mL
Pseudomonas aeruginosa [11]
  MIC: > 128 µg/mL
Pseudomonas aeruginosa [12]
  MIC: > 128 µg/mL
Pseudomonas aeruginosa [13]
  MIC: > 128 µg/mL
Pseudomonas aeruginosa [14]
  MIC: > 128 µg/mL
Pseudomonas aeruginosa [15]
  MIC: > 128 µg/mL
Pseudomonas aeruginosa [16]
  MIC: > 128 µg/mL
Pseudomonas aeruginosa [17]
  MIC: > 128 µg/mL
Pseudomonas aeruginosa [18]
  MIC: > 128 µg/mL
Pseudomonas aeruginosa [19]
  MIC: > 128 µg/mL
Pseudomonas aeruginosa [20]
  MIC: > 128 µg/mL
Pseudomonas aeruginosa [21]
  MIC: > 128 µg/mL
Pseudomonas aeruginosa [22]
  MIC: 64 µg/mL (≈ 124 µM)
Pseudomonas aeruginosa [23]
  MIC: 64 µg/mL (≈ 124 µM)
Pseudomonas aeruginosa [24]
  MIC: 32 µg/mL (≈ 61.8 µM)
Pseudomonas aeruginosa [25]
  MIC: > 128 µg/mL
Pseudomonas aeruginosa [26]
  MIC: 48 µg/mL (≈ 92.7 µM)
Pseudomonas aeruginosa [27]
  MIC: 48 µg/mL (≈ 92.7 µM)
Pseudomonas aeruginosa [28]
  MIC: 24 µg/mL (≈ 46.4 µM)
Pseudomonas aeruginosa [29]
  MIC: 24 µg/mL (≈ 46.4 µM)
Pseudomonas aeruginosa [30]
  MIC: 16 µg/mL (≈ 30.9 µM)
Pseudomonas aeruginosa [31]
  MIC: 16 µg/mL (≈ 30.9 µM)
Pseudomonas aeruginosa [32]
  MIC: 16 µg/mL (≈ 30.9 µM)
Pseudomonas aeruginosa [33]
  MIC: 16 µg/mL (≈ 30.9 µM)
Enterobacter cloacae [34]
  MIC: > 128 µg/mL
Pseudomonas putida [35]
  MIC: > 128 µg/mL
Pseudomonas aeruginosa [36]
  MIC: > 128 µg/mL
Pseudomonas aeruginosa [37]
  MIC: > 128 µg/mL
Pseudomonas aeruginosa [38]
  MIC: > 128 µg/mL
Pseudomonas aeruginosa [39]
  MIC: > 128 µg/mL
Pseudomonas aeruginosa [40]
  MIC: > 128 µg/mL
Pseudomonas aeruginosa [41]
  MIC: > 128 µg/mL
Pseudomonas aeruginosa [42]
  MIC: > 128 µg/mL
Pseudomonas aeruginosa [43]
  MIC: > 128 µg/mL
Pseudomonas aeruginosa [44]
  MIC: > 128 µg/mL
Pseudomonas aeruginosa [45]
  MIC: > 128 µg/mL
Pseudomonas aeruginosa [46]
  MIC: > 128 µg/mL
Pseudomonas aeruginosa [47]
  MIC: > 128 µg/mL
Pseudomonas aeruginosa [48]
  MIC: > 128 µg/mL
Pseudomonas aeruginosa [49]
  MIC: > 128 µg/mL
Pseudomonas aeruginosa [50]
  MIC: > 128 µg/mL
Pseudomonas aeruginosa [51]
  MIC: > 128 µg/mL
Pseudomonas aeruginosa [52]
  MIC: 48 µg/mL
Pseudomonas aeruginosa [53]
  MIC: 48 µg/mL
Pseudomonas aeruginosa [54]
  MIC: 32 µg/mL
Pseudomonas aeruginosa [55]
  MIC: > 128 µg/mL
Pseudomonas aeruginosa [56]
  MIC: 32 µg/mL
Pseudomonas aeruginosa [57]
  MIC: 32 µg/mL
Pseudomonas aeruginosa [58]
  MIC: 16 µg/mL
Pseudomonas aeruginosa [59]
  MIC: 16 µg/mL
Pseudomonas aeruginosa [60]
  MIC: 16 µg/mL
Pseudomonas aeruginosa [61]
  Activity: 39%
